pEC50: −log10 of the molar value.
What was measured:
[1] = target: Muscarinic acetylcholine receptor M4 (human) (UniProt P08173); assay: Positive allosteric modulation of human M4 receptor expressed in CHO cells co-expressing Gqi5 assessed as increase in acetylcholine-induced calcium mobilization incubated with EC20 ACh for 140 secs and subsequent EC80 Ach addition further incubated for 120 secs by Fluo-4-AM dye based fluorescence assay
[2] = target: Muscarinic acetylcholine receptor M4 (rat); assay: Positive allosteric modulation of rat M4 receptor expressed in CHO cells co-expressing Gqi5 assessed as increase in acetylcholine-induced calcium mobilization incubated with EC20 ACh for 140 secs and subsequent EC80 Ach addition further incubated for 120 secs by Fluo-4-AM dye based fluorescence assay

Chain of Muscarinic acetylcholine receptor M4 (human) (P08173 whole entry, looked up): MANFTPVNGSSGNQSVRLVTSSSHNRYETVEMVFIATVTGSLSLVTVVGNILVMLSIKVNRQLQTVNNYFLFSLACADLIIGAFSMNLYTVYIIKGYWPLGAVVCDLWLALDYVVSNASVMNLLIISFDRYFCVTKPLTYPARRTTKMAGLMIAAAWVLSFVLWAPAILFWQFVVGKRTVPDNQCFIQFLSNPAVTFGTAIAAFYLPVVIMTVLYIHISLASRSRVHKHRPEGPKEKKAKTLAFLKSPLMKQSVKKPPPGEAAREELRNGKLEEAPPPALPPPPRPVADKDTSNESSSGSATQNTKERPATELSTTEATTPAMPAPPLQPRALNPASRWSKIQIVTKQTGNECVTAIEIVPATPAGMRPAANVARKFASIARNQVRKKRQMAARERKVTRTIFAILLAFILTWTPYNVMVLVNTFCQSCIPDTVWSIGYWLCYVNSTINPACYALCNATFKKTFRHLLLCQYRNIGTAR

Row | SMILES | pEC50 [1] | pEC50 [2]
1 | Cc1nnc2ccc(C(=O)NC3CN(c4cccc(C(F)(F)F)n4)C3)cc2c1C | 5.47 | 
2 | Cc1nnc2ccc(C(=O)NC3CN(c4cccc(Cl)n4)C3)cc2c1C | 5.88 | 
3 | Cc1nnc2ccc(C(=O)NC3CN(c4ccc(OC(F)F)nc4)C3)cc2c1C | 5.84 | 
4 | Cc1nnc2ccc(C(=O)NC3CN(c4cnc(C5CC5)cn4)C3)cc2c1C | 5.60 | 
5 | Cc1nnc2ccc(C(=O)NC3CN(c4ccc(C#N)cn4)C3)cc2c1C | 5.99 | 
6 | Cc1nnc2ccc(C(=O)NC3CN(c4cccc(F)n4)C3)cc2c1C | 6.18 | 
7 | Cc1nnc2ccc(C(=O)NC3CN(c4ncccc4Cl)C3)cc2c1C | 6.02 | 
8 | Cc1nnc2ccc(C(=O)NC3CN(c4ccc(F)c(F)c4)C3)cc2c1C | 6.13 | 
9 | Cc1nnc2ccc(C(=O)NC3CN(c4ncc(C(F)(F)F)cn4)C3)cc2c1C | < 5.00 | 
10 | Cc1nnc2ccc(C(=O)NC3CN(c4ncc(C#N)cc4Cl)C3)cc2c1C | 6.52 | 6.86
11 | COc1cc(N2CC(NC(=O)c3ccc4nnc(C)c(C)c4c3)C2)c(Cl)cn1 | 6.43 | 6.45
12 | Cc1nnc2ccc(C(=O)NC3CN(c4ncc(C5CC5)cc4Cl)C3)cc2c1C | 5.86 | 
13 | Cc1nnc2ccc(C(=O)NC3CN(c4ccc(Cl)cn4)C3)cc2c1C | 5.90 | 

More lines, in order of rising pEC50 [1], values ahead:

Row | pEC50 [1] | pEC50 [2] | SMILES
14 | 5.49 |  | Cc1nnc2ccc(C(=O)NC3CN(c4ncc(OC(C)C)cn4)C3)cc2c1C
15 | 5.58 |  | Cc1nnc2ccc(C(=O)NC3CN(c4ncc(C(F)(F)F)cc4Cl)C3)cc2c1C
16 | 5.92 |  | Cc1nnc2ccc(C(=O)NC3CN(c4ncccc4F)C3)cc2c1C
17 | 6.19 | 7.09 | Cc1nnc2ccc(C(=O)NC3CN(c4ncc(Cl)cc4F)C3)cc2c1C
18 | 6.33 | 6.76 | Cc1nnc2ccc(C(=O)NC3CN(c4ncc(F)cc4Cl)C3)cc2c1C
19 | 6.94 | 6.64 | Cc1nnc2ccc(C(=O)NC3CN(c4cc(Cl)ncc4Cl)C3)cc2c1C

— BindingDB's records for doi:10.1016/j.bmcl.2019.126678 (Vanderbilt University, 2019)
